Laboratory results taken from US20240124444A1 (Celgene Corporation, priority 2020, published 2024).

Test system: C. parvum strain UGA1
Test: C. parvum growth inhibition assay (Nluc luminescence in HCT-8 cells)
Assay type: cell-based, Cryptosporidium parvum
Settings: Cryptosporidium parvum, HCT-8; for inhibition at 1 µM: single point inhibition at 1 uM, read-out: % inh @ 1 uM C. parvum; for inhibition at 10 µM: single point inhibition at 10 uM, read-out: % inh @ 10 uM C. parvum

Q: Which inhibition at 1 µM does the source give for `CNC(=O)Nc1cc2[nH]c(-c3ccnc(C)c3)cc2cn1` [Example 214, 1-methyl-3-(2-(2-methylpyridin-4-yl)-1H-pyrrolo[3,2-c]pyridin-6-yl)urea] here?
A: Its inhibition at 1 µM is 0 to 33%.

Q: And the inhibition at 10 µM?
A: The inhibition at 10 µM was 67 to 100%.

Q: How did the inhibition at 1 µM turn out when `CC(C)(O)c1cc(-c2cc3cnc(Nc4cccc(-c5nc[nH]n5)c4)cc3[nH]2)ccn1` [Example 215, 2-(4-(6-(3-(1H-1,2,4-triazol-3-yl)phenylamino)-1H-pyrrolo[3,2-c]pyridin-2-yl)pyridin-2-yl)propan-2-ol] was run?
A: The inhibition at 1 µM was 33 to 66%.

Q: What about the inhibition at 10 µM of the same compound?
A: The inhibition at 10 µM was 67 to 100%.

Q: How did the inhibition at 1 µM turn out when `O=C(Nc1cc2[nH]c(-c3ccnc(OCCC(F)(F)F)n3)cc2cn1)c1cnn([C@H]2CC[C@H](O)CC2)c1` [Example 216, 1-((1r,4r)-4-hydroxycyclohexyl)-N-(2-(2-(3,3,3-trifluoropropoxy)pyrimidin-4-yl)-1H-pyrrolo[3,2-c]pyridin-6-yl)-1H-pyrazole-4-carboxamide] was run?
A: Its inhibition at 1 µM is 0 to 33%.

Q: And the inhibition at 10 µM?
A: The inhibition at 10 µM was 67 to 100%.

Q: For `O=C(Nc1cc2[nH]c(-c3ccncc3)cc2cn1)C1CCCCC1` [Example 217, N-(2-(pyridin-4-yl)-1H-pyrrolo[3,2-c]pyridin-6-yl)cyclohexanecarboxamide], which inhibition at 1 µM is on record?
A: Its inhibition at 1 µM is 0 to 33%.

Q: What about the inhibition at 10 µM of the same compound?
A: The inhibition at 10 µM was 33 to 66%.

Q: `Cc1cc(-c2cc3cnc(NC(=O)c4cc(C(F)F)nn4C)cc3[nH]2)ccn1` [Example 218, 3-(difluoromethyl)-1-methyl-N-(2-(2-methylpyridin-4-yl)-1H-pyrrolo[3,2-c]pyridin-6-yl)-1H-pyrazole-5-carboxamide] was tested. Which inhibition at 1 µM did it give?
A: The inhibition at 1 µM was 0 to 33%.

Q: What about the inhibition at 10 µM of the same compound?
A: Its inhibition at 10 µM is 33 to 66%.

Q: How did the inhibition at 1 µM turn out when `COc1nccc(-c2cc3cnc(NC(=O)c4cnn([C@H]5CC[C@H](O)CC5)c4)cc3[nH]2)n1` [Example 219, 1-((1r,4r)-4-hydroxycyclohexyl)-N-(2-(2-methoxypyrimidin-4-yl)-1H-pyrrolo[3,2-c]pyridin-6-yl)-1H-pyrazole-4-carboxamide] was run?
A: The inhibition at 1 µM was 0 to 33%.

Q: And the inhibition at 10 µM?
A: Its inhibition at 10 µM is 33 to 66%.

Q: What does the source list for `COc1nccc(-c2cc3cnc(NC(=O)c4cccc5c4cnn5C)cc3[nH]2)n1` [Example 220, N-(2-(2-methoxypyrimidin-4-yl)-1H-pyrrolo[3,2-c]pyridin-6-yl)-1-methyl-1H-indazole-4-carboxamide]?
A: inhibition at 1 µM: 0 to 33%; inhibition at 10 µM: 33 to 66%

Q: How did the inhibition at 1 µM turn out when `Cc1cc(-c2cc3cnc(NC(=O)c4c(C)noc4C)cc3[nH]2)ccn1` [Example 221, 3,5-dimethyl-N-(2-(2-methylpyridin-4-yl)-1H-pyrrolo[3,2-c]pyridin-6-yl)isoxazole-4-carboxamide] was run?
A: The inhibition at 1 µM was 0 to 33%.

Q: What about the inhibition at 10 µM of the same compound?
A: Its inhibition at 10 µM is 33 to 66%.

Q: Which inhibition at 10 µM does the source give for `Cn1cc(-c2cc3cnc(Nc4ccc(C(F)(F)F)cc4)cc3[nH]2)cn1` [Example 222] here?
A: The inhibition at 10 µM was 33 to 66%.

Q: With `Cn1cc(-c2cc3cnc(NC4CCOCC4)cc3n2C)cn1` [Example 223, 1-methyl-2-(1-methyl-1H-pyrazol-4-yl)-N-(tetrahydro-2H-pyran-4-yl)-1H-pyrrolo[3,2-c]pyridin-5-amine] as the compound, how does the inhibition at 1 µM read?
A: Its inhibition at 1 µM is 0 to 33%.

Q: And the inhibition at 10 µM?
A: The inhibition at 10 µM was 33 to 66%.

Q: `Cc1cc(-c2cc3cnc(NC(=O)c4cnn(C)c4)cc3[nH]2)ccn1` [Example 224, 1-methyl-N-(2-(2-methylpyridin-4-yl)-1H-pyrrolo[3,2-c]pyridin-6-yl)-1H-pyrazole-4-carboxamide] was tested. Which inhibition at 1 µM did it give?
A: Its inhibition at 1 µM is 0 to 33%.

Q: What about the inhibition at 10 µM of the same compound?
A: The inhibition at 10 µM was 33 to 66%.

Q: Which inhibition at 1 µM does the source give for `O=C(Nc1cc2[nH]c(-c3ccnc(OCCF)n3)cc2cn1)c1cnn(C2CCOCC2)c1` [Example 225, N-(2-(2-(2-fluoroethoxy)pyrimidin-4-yl)-1H-pyrrolo[3,2-c]pyridin-6-yl)-1-(tetrahydro-2H-pyran-4-yl)-1H-pyrazole-4-carboxamide] here?
A: The inhibition at 1 µM was 0 to 33%.

Q: What about the inhibition at 10 µM of the same compound?
A: Its inhibition at 10 µM is 33 to 66%.

Q: For `Cc1nn(C)cc1C(=O)Nc1cc2[nH]c(-c3ccnc(OCC(F)(F)F)n3)cc2cn1` [Example 226, 1,3-dimethyl-N-(2-(2-(2,2,2-trifluoroethoxy)pyrimidin-4-yl)-1H-pyrrolo[3,2-c]pyridin-6-yl)-1H-pyrazole-4-carboxamide], which inhibition at 1 µM is on record?
A: Its inhibition at 1 µM is 0 to 33%.

Q: What about the inhibition at 10 µM of the same compound?
A: The inhibition at 10 µM was 33 to 66%.

Q: How did the inhibition at 1 µM turn out when `COc1nccc(-c2cc3cnc(NC(=O)CC4COC4)cc3[nH]2)n1` [Example 227, N-(2-(2-methoxypyrimidin-4-yl)-1H-pyrrolo[3,2-c]pyridin-6-yl)-2-(oxetan-3-yl)acetamide] was run?
A: The inhibition at 1 µM was 0 to 33%.

Q: And the inhibition at 10 µM?
A: The inhibition at 10 µM was 33 to 66%.

Q: How did the inhibition at 1 µM turn out when `CO[C@H]1CC[C@@H](Nc2cc3[nH]c(-c4cccnc4)cc3cn2)CC1` [Example 228, N-((1s,4s)-4-methoxycyclohexyl)-2-(pyridin-3-yl)-1H-pyrrolo[3,2-c]pyridin-6-amine] was run?
A: The inhibition at 1 µM was 33 to 66%.

Q: And the inhibition at 10 µM?
A: Its inhibition at 10 µM is 33 to 66%.

Q: For `Cn1cncc1-c1cc2cnc(Nc3ccc(F)cc3)cc2[nH]1` [Example 229, N-(4-fluorophenyl)-2-(1-methyl-1H-imidazol-5-yl)-1H-pyrrolo[3,2-c]pyridin-6-amine], which inhibition at 1 µM is on record?
A: Its inhibition at 1 µM is 33 to 66%.

Q: And the inhibition at 10 µM?
A: The inhibition at 10 µM was 33 to 66%.

Q: Which results are given for `CCOc1nccc(-c2cc3cnc(NC(=O)c4cnn(CCO)c4C)cc3[nH]2)n1` [Example 230, N-(2-(2-ethoxypyrimidin-4-yl)-1H-pyrrolo[3,2-c]pyridin-6-yl)-1-(2-hydroxyethyl)-5-methyl-1H_ pyrazole-4-carboxamide]?
A: inhibition at 1 µM: 0 to 33%; inhibition at 10 µM: 33 to 66%

Q: Which results are given for `CC(C)n1cc(C(=O)Nc2cc3[nH]c(-c4ccnc(N(C)CC(F)(F)F)n4)cc3cn2)cn1` [Example 232, 1-isopropyl-N-(2-(2-(methyl(2,2,2-trifluoroethyl)amino)pyrimidin-4-yl)-1H-pyrrolo[3,2-c]pyridin-6-yl)-1H-pyrazole-4-carboxamide]?
A: inhibition at 1 µM: 0 to 33%; inhibition at 10 µM: 33 to 66%

Q: What does the source list for `CCOc1nccc(-c2cc3cnc(NC(=O)c4cn(CCO)nc4C)cc3[nH]2)n1` [Example 233, N-(2-(2-ethoxypyrimidin-4-yl)-1H-pyrrolo[3,2-c]pyridin-6-yl)-1-(2-hydroxyethyl)-3-methyl-1H-pyrazole-4-carboxamide]?
A: inhibition at 1 µM: 0 to 33%; inhibition at 10 µM: 33 to 66%

Q: How did the inhibition at 1 µM turn out when `Cn1cc(-c2cc3cnc(Nc4ccc(F)cc4)cc3n2C)cn1` [Example 235, N-(4-fluorophenyl)-1-methyl-2-(1-methyl-1H-pyrazol-4-yl)-1H-pyrrolo[3,2-c]pyridin-6-amine] was run?
A: The inhibition at 1 µM was 0 to 33%.

Q: What about the inhibition at 10 µM of the same compound?
A: Its inhibition at 10 µM is 33 to 66%.

Q: `Cc1cc(-c2cc3cnc(NC(=O)c4cnn(C5CCOC5)c4)cc3[nH]2)ccn1` (centres unmarked) [Example 236, N-(2-(2-methylpyridin-4-yl)-1H-pyrrolo[3,2-c]pyridin-6-yl)-1-(tetrahydrofuran-3-yl)-1H-pyrazole-4-carboxamide] was tested. Which inhibition at 1 µM did it give?
A: Its inhibition at 1 µM is 33 to 66%.

Q: And the inhibition at 10 µM?
A: Its inhibition at 10 µM is 33 to 66%.

Q: With `Cc1cc(-c2cc3cnc(NC(=O)c4cccc5cn[nH]c45)cc3[nH]2)ccn1` [Example 237, N-(2-(2-methylpyridin-4-yl)-1H-pyrrolo[3,2-c]pyridin-6-yl)-1H-indazole-7-carboxamide] as the compound, how does the inhibition at 1 µM read?
A: The inhibition at 1 µM was 0 to 33%.

Q: And the inhibition at 10 µM?
A: The inhibition at 10 µM was 33 to 66%.

Q: `Cn1ccc(C(=O)Nc2cc3[nH]c(-c4ccncc4)cc3cn2)n1` [Example 238, 1-methyl-N-(2-(pyridin-4-yl)-1H-pyrrolo[3,2-c]pyridin-6-yl)-1H-pyrazole-3-carboxamide] was tested. Which inhibition at 1 µM did it give?
A: The inhibition at 1 µM was 0 to 33%.

Q: And the inhibition at 10 µM?
A: The inhibition at 10 µM was 0 to 33%.

Q: Which results are given for `Cn1cc(C(=O)Nc2cc3[nH]c(-c4ccnc(C#N)c4)cc3cn2)cn1` [Example 239, N-(2-(2-cyanopyridin-4-yl)-1H-pyrrolo[3,2-c]pyridin-6-yl)-1-methyl-1H-pyrazole-4-carboxamide]?
A: inhibition at 1 µM: 0 to 33%; inhibition at 10 µM: 33 to 66%

Q: `Cc1nn(C)cc1C(=O)Nc1cc2c(cn1)cc(-c1ccnc(NCC(F)(F)F)n1)n2C` [Example 240, 1,3-dimethyl-N-(1-methyl-2-(2-(2,2,2-trifluoroethylamino)pyrimidin-4-yl)-1H-pyrrolo[3,2-c]pyridin-6-yl)-1H-pyrazole-4-carboxamide] was tested. Which inhibition at 1 µM did it give?
A: The inhibition at 1 µM was 0 to 33%.

Q: And the inhibition at 10 µM?
A: The inhibition at 10 µM was 0 to 33%.

Q: `CC(C)n1cc(-c2cc3cnc(NC4CCOCC4)cc3n2C)cn1` [Example 241, 2-(1-isopropyl-1H-pyrazol-4-yl)-1-methyl-N-(tetrahydro-2H-pyran-4-yl)-1H-pyrrolo[3,2-c]pyridin-6-amine] was tested. Which inhibition at 1 µM did it give?
A: The inhibition at 1 µM was 33 to 66%.

Q: What about the inhibition at 10 µM of the same compound?
A: Its inhibition at 10 µM is 0 to 33%.

Q: What does the source list for `CCn1cc(C(=O)Nc2cc3[nH]c(-c4ccnc(OCC(F)(F)F)n4)cc3cn2)c(C)n1` [Example 242, 1-ethyl-3-methyl-N-(2-(2-(2,2,2-trifluoroethoxy)pyrimidin-4-yl)-1H-pyrrolo[3,2-c]pyridin-6-yl)-1H-pyrazole-4-carboxamide]?
A: inhibition at 1 µM: 0 to 33%; inhibition at 10 µM: 0 to 33%

Q: With `CCOc1nccc(-c2cc3cnc(NC(=O)c4cccc5cn[nH]c45)cc3[nH]2)n1` [Example 243, N-(2-(2-ethoxypyrimidin-4-yl)-1H-pyrrolo[3,2-c]pyridin-6-yl)-1H-indazole-7-carboxamide] as the compound, how does the inhibition at 1 µM read?
A: Its inhibition at 1 µM is 0 to 33%.

Q: And the inhibition at 10 µM?
A: Its inhibition at 10 µM is 0 to 33%.

Q: How did the inhibition at 1 µM turn out when `CC(=O)Nc1cc2c(cn1)cc(C#N)n2C` [Example 245, N-(2-cyano-1-methyl-1H-pyrrolo[3,2-c]pyridin-6-yl)acetamide] was run?
A: Its inhibition at 1 µM is 0 to 33%.

Q: And the inhibition at 10 µM?
A: The inhibition at 10 µM was 0 to 33%.

Q: What does the source list for `O=C(Nc1cc2[nH]c(-c3ccnc(C(F)(F)F)n3)cc2cn1)C1CC(O)C1` (centres unmarked) [Example 247, (1s,3s)-3-hydroxy-N-(2-(2-(trifluoromethyl)pyrimidin-4-yl)-1H-pyrrolo[3,2-c]pyridin-6-yl)cyclobutanecarboxamide]?
A: inhibition at 1 µM: 33 to 66%; inhibition at 10 µM: 0 to 33%

Q: How did the inhibition at 1 µM turn out when `O=C(Nc1cc2[nH]c(-c3ccc(F)nc3)cc2cn1)C1CC1` [Example 248, N-(2-(6-fluoropyridin-3-yl)-1H-pyrrolo[3,2-c]pyridin-6-yl)cyclopropanecarboxamide] was run?
A: The inhibition at 1 µM was 0 to 33%.

Q: What about the inhibition at 10 µM of the same compound?
A: Its inhibition at 10 µM is 0 to 33%.

Q: For `CCOc1nccc(-c2cc3cnc(NC(=O)c4ccc(OCCOC)c(OC)c4)cc3[nH]2)n1` [Example 249, N-(2-(2-ethoxypyrimidin-4-yl)-1H-pyrrolo[3,2-c]pyridin-6-yl)-3-methoxy-4-(2-methoxyethoxy)benzamide], which inhibition at 1 µM is on record?
A: The inhibition at 1 µM was 0 to 33%.

Q: What about the inhibition at 10 µM of the same compound?
A: The inhibition at 10 µM was 0 to 33%.

Q: Which results are given for `COc1nccc(-c2cc3cnc(NC(=O)c4cn(C)nc4C)cc3[nH]2)n1` [Example 250, N-(2-(2-methoxypyrimidin-4-yl)-1H-pyrrolo[3,2-c]pyridin-6-yl)-1,3-dimethyl-1H-pyrazole-4-carboxamide]?
A: inhibition at 1 µM: 0 to 33%; inhibition at 10 µM: 0 to 33%
